Reference: paper PMC9784055, “Meroterpenoids and Steroids from the Marine-Derived Fungus Trametes sp. ZYX-Z-16” (Molecules, 2022)
Values after ≈ are worked out from the molar mass of the structure shown.

Legend:
Escherichia coli = test system: T1, Escherichia coli; assay: microbe, parasite or virus in culture; parameters: antibacterial 96-well microtiter plate assay, visible growth, 37 °C; details: 12 h
T1 construct: ATCC 25922
Description: (§1) Four bacteria (Staphylococcus aureus ATCC6538, Bacillus subtilis ATCC 6633, Escherichia coli ATCC 25922, and Listeria monocytogenes ATCC 1911) were used for antibacterial evaluation for all compounds, referring to the previous method with ampicillin as a positive control. […] Five phytopathogens (Fusarium oxysporum f. sp. cubense, Fusarium spp., Peronophythora litchii, Colletotrichum gloeosporioides, and Hylocereus undatus) were used for antifungal evaluation for all compounds, referring to the previous broth microdilution method with carbendazim as a positive control. […] Each test was performed in triplicate. The inhibitory activity of all compounds against four bacteria (Staphylococcus aureus ATCC6538, Bacillus subtilis ATCC 6633, Escherichia coli ATCC 25922, and Listeria monocytogenes ATCC 1911) was evaluated using the 96-well microtiter plates method.

Bacillus subtilis = test system: T2, Bacillus subtilis; assay: microbe, parasite or virus in culture; parameters: antibacterial 96-well microtiter plate assay, visible growth, 37 °C; details: 12 h
T2 construct: ATCC 6633
Description: as §1

Staphylococcus aureus = test system: T3, Staphylococcus aureus; assay: microbe, parasite or virus in culture; parameters: antibacterial 96-well microtiter plate assay, visible growth, 37 °C; details: 12 h
T3 construct: ATCC 6538
Description: as §1

Listeria monocytogenes = test system: T4, Listeria monocytogenes; assay: microbe, parasite or virus in culture; parameters: antibacterial 96-well microtiter plate assay, visible growth, 37 °C; details: 12 h
T4 construct: ATCC 1911
Description: as §1

Fusarium spp. = assay: microbe, parasite or virus in culture; details: 48 h, read-out: Fusarium spp. MIC
Method: (§2) Four bacteria (Staphylococcus aureus ATCC6538, Bacillus subtilis ATCC 6633, Escherichia coli ATCC 25922, and Listeria monocytogenes ATCC 1911) were used for antibacterial evaluation for all compounds, referring to the previous method with ampicillin as a positive control. The bacteria inhibitory activity of all compounds was observed after 12 h in a constant temperature incubator at 37 °C. Five phytopathogens (Fusarium oxysporum f. sp. cubense, Fusarium spp., Peronophythora litchii, Colletotrichum gloeosporioides, and Hylocereus undatus) were used for antifungal evaluation for all compounds, referring to the previous broth microdilution method with carbendazim as a positive control. The fungal inhibitory activity of all compounds was observed after 48 h in a constant temperature incubator at 28 °C. […] Each test was performed in triplicate.

[1] = test system: Fusarium oxysporum f. sp. cubense; assay: microbe, parasite or virus in culture; parameters: antifungal broth microdilution, visible growth, 28 °C; details: 48 h
Method: as §2, with “triplicate. The inhibitory activities of all compounds against five phytopathogenic fungi (Fusarium oxysporum f. sp. cubense, Fusarium spp., Peronophythora litchii, Colletotrichum gloeosporioides, and Hylocereus undatus) were evaluated using the broth microdilution method.” for “triplicate.”

[2] = test system: Colletotrichum gloeosporioides; assay: microbe, parasite or virus in culture; parameters: antifungal broth microdilution, visible growth, 28 °C; details: 48 h
Method: as §2, with “triplicate. The inhibitory activities of all compounds against five phytopathogenic fungi (Fusarium oxysporum f. sp. cubense, Fusarium spp., Peronophythora litchii, Colletotrichum gloeosporioides, and Hylocereus undatus) were evaluated using the broth microdilution method.” for “triplicate.”

Peronophythora litchii = assay: microbe, parasite or virus in culture; parameters: antifungal broth microdilution, visible growth, 28 °C; details: Phytophthora litchii, 48 h
Method: as §2, with “triplicate. The inhibitory activities of all compounds against five phytopathogenic fungi (Fusarium oxysporum f. sp. cubense, Fusarium spp., Peronophythora litchii, Colletotrichum gloeosporioides, and Hylocereus undatus) were evaluated using the broth microdilution method.” for “triplicate.”

α-glucosidase = α-glucosidase inhibition assay with p-NPG as substrate; assay type: biochemical

SMILES | MIC (Escherichia coli) | MIC (Bacillus subtilis) | MIC (Staphylococcus aureus) | MIC (Listeria monocytogenes) | MIC (Fusarium spp.) | MIC [1] | MIC [2] | MIC (Peronophythora litchii) | IC50 (α-glucosidase)
CC1(C)S[C@@H]2[C@H](NC(=O)[C@H](N)c3ccccc3)C(=O)N2[C@H]1C(=O)O [Ampicillin] | < 1 µg/mL | < 1 µg/mL | < 1 µg/mL | < 1 µg/mL |  |  |  |  | 
COC(=O)Nc1nc2ccccc2[nH]1 [Carbendazim] |  |  |  |  | < 1 µg/mL | < 1 µg/mL | < 1 µg/mL | < 1 µg/mL | 
COC(=O)C1C(=O)C(C)=C2OC3(CC2(C)C1C)C(C)C(O)CC1C(C)(C)OC(=O)CCC13C (stereo not shown) [compound 1, asnovolin H] | > 128 µg/mL | > 128 µg/mL | > 128 µg/mL | > 128 µg/mL | > 128 µg/mL | > 128 µg/mL | > 128 µg/mL | > 128 µg/mL | 
CC1=C2O[C@@]3(C[C@]2(C)C(C)=C(C(=O)O)C1=O)[C@@H](C)CC[C@H]1C(C)(C)OC(=O)CC[C@@]13C [compound 2, asnovolin I] | > 128 µg/mL | > 128 µg/mL | > 128 µg/mL | > 128 µg/mL | > 128 µg/mL | > 128 µg/mL | > 128 µg/mL | > 128 µg/mL | 
COC(=O)C1=C(C)C2(C)CC3(OC2=C(C)C1=O)C(C)CCC1C(C)(C)OC(=O)CCC13C (stereo not shown) [compound 3, asnovolin C 5′6′-dehydro hydrogen] | > 128 µg/mL | > 128 µg/mL | > 128 µg/mL | > 128 µg/mL | > 128 µg/mL | > 128 µg/mL | > 128 µg/mL | > 128 µg/mL | 
COC(=O)CC[C@@]1(C)[C@H](C(C)(C)O)CC[C@H](C)[C@@]12C[C@@]1(C)C(=C(C)C(=O)[C@@H](C(=O)OC)[C@@H]1C)O2 [compound 4, asnovolin C] | > 128 µg/mL | > 128 µg/mL | > 128 µg/mL | > 128 µg/mL | > 128 µg/mL | > 128 µg/mL | > 128 µg/mL | > 128 µg/mL | 
CC1=CC(=O)C(C)=C2O[C@@]3(C[C@]12C)[C@@H](C)CC[C@H]1C(C)(C)[C@@H](O)CC[C@@]13C [compound 5, chermesin A] | > 128 µg/mL | > 128 µg/mL | 128 µg/mL (≈ 344 µM) | > 128 µg/mL | > 128 µg/mL | > 128 µg/mL | > 128 µg/mL | > 128 µg/mL | 
C[C@@H]1Cc2c3c(cc(O)c2C(=O)O1)O[C@@]1(C)[C@@H](O)C[C@H]2C(C)(C)C(=O)C=C[C@]2(C)[C@@H]1C3 [compound 6, chrodrimanin E] | > 128 µg/mL | > 128 µg/mL | > 128 µg/mL | > 128 µg/mL | > 128 µg/mL | > 128 µg/mL | > 128 µg/mL | > 128 µg/mL | 
C[C@@H]1Cc2c3c(cc(O)c2C(=O)O1)O[C@@]1(C)[C@@H](O)C[C@H]2C(C)(C)C(=O)CC[C@]2(C)[C@@H]1C3 [compound 7, chrodrimanin H] | > 128 µg/mL | > 128 µg/mL | > 128 µg/mL | > 128 µg/mL | > 128 µg/mL | > 128 µg/mL | > 128 µg/mL | > 128 µg/mL | 
CC(=O)O[C@@H]1c2c3c(cc(O)c2C(=O)O[C@@H]1C)O[C@]1(C)[C@H](C3)[C@@]2(C)CCC(=O)C(C)(C)[C@@H]2C[C@@H]1O [compound 8, thailandolide B] | > 128 µg/mL | > 128 µg/mL | > 128 µg/mL | > 128 µg/mL | > 128 µg/mL | > 128 µg/mL | > 128 µg/mL | > 128 µg/mL | 
CC(C)[C@@H](C)/C=C/[C@@H](C)[C@H]1CC[C@H]2C3=C(CC[C@]12C)[C@@]1(C)CCC(=O)C=C1C=C3 [compound 9, ergosta-4,6,8,22E-tetraene-3-one] | > 128 µg/mL | > 128 µg/mL | > 128 µg/mL | > 128 µg/mL | > 128 µg/mL | > 128 µg/mL | > 128 µg/mL | > 128 µg/mL | 
CC(C)[C@@H](C)/C=C/[C@@H](C)[C@H]1CC[C@@]2(O)C3=CC(=O)C4=CC(=O)CC[C@]4(C)[C@H]3CC[C@]12C [compound 10, 14α-hydroxyergosta-4,7,22E-triene-3,6-dione] | > 128 µg/mL | > 128 µg/mL | > 128 µg/mL | > 128 µg/mL | > 128 µg/mL | > 128 µg/mL | > 128 µg/mL | > 128 µg/mL | 111 µM
CC(C)C(C)C=CC(C)C1CCC2C3CC(O)C4=CC(=O)CCC4(C)C3CCC12C (stereo not drawn) [compound 13, ergosta-6α-hydroxy-4,22E-dien-3-one] | > 128 µg/mL | > 128 µg/mL | > 128 µg/mL | > 128 µg/mL | > 128 µg/mL | > 128 µg/mL | > 128 µg/mL | > 128 µg/mL | 
CO[C@@H]1C[C@H]([C@H](C)/C=C/[C@H](C)C(C)C)[C@@]2(C)CC[C@H]3C(=C12)C=CC1=CC(=O)CC[C@@]13C [compound 16, 15β-methoxy-ergosta-4,6,8(14),22E-tetraene-3-one] | > 128 µg/mL | > 128 µg/mL | > 128 µg/mL | > 128 µg/mL | > 128 µg/mL | > 128 µg/mL | > 128 µg/mL | > 128 µg/mL | 
CC(C)[C@@H](C)/C=C/[C@@H](C)[C@H]1CC(=O)C2=C3C=CC4=CC(=O)CC[C@]4(C)[C@@]3(O)CC[C@@]21C [compound 17, ganodermaside C] | > 128 µg/mL | > 128 µg/mL | > 128 µg/mL | > 128 µg/mL | > 128 µg/mL | > 128 µg/mL | > 128 µg/mL | > 128 µg/mL | 
CC(C)[C@@H](C)/C=C/[C@@H](C)[C@H]1C[C@H](O)C2=C3C=CC4=CC(=O)CC[C@]4(C)C3CC[C@@]21C (stereo partly shown) [compound 18, ganodermaside A] | > 128 µg/mL | > 128 µg/mL | > 128 µg/mL | > 128 µg/mL | > 128 µg/mL | > 128 µg/mL | > 128 µg/mL | > 128 µg/mL | 
